Assay results from ChEMBL document CHEMBL1145159 (J Med Chem, 2005).
Square brackets hold non-standard residues; d marks the D form. Peptide text beside a SMILES is read from it. Hyp = O=C(O)[C@@H]1C[C@@H](O)CN1

Columns and labels:
[1] = target: Neuronal acetylcholine receptor; alpha3/beta2 (Homo sapiens, UniProt P17787+P32297); assay: Inhibitory concentration against Nicotinic acetylcholine receptor alpha3-beta2; Range is 3-5 nM; assay type: protein-complex assay
[2] = target: T1, Neuronal acetylcholine receptor; alpha3/beta4 (Homo sapiens, UniProt P30926+P32297); assay: Inhibitory concentration against Nicotinic acetylcholine receptor alpha3-beta4; Range is 3-5 nM; assay type: protein-complex assay
T1 sequence (P30926 whole entry): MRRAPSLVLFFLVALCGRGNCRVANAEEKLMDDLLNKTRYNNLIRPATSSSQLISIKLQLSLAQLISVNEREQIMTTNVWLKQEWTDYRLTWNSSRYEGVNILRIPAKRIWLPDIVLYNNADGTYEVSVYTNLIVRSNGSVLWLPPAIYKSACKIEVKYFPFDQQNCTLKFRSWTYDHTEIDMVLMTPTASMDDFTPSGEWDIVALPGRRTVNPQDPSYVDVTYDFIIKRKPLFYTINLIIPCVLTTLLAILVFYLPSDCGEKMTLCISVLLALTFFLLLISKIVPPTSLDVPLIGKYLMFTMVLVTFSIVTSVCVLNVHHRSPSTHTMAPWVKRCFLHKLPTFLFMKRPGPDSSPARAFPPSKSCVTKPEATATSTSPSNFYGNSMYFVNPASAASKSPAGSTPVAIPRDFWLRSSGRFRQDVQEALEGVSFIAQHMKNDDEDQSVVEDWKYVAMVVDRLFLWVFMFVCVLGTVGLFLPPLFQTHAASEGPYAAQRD
T1 sequence (P32297 whole entry): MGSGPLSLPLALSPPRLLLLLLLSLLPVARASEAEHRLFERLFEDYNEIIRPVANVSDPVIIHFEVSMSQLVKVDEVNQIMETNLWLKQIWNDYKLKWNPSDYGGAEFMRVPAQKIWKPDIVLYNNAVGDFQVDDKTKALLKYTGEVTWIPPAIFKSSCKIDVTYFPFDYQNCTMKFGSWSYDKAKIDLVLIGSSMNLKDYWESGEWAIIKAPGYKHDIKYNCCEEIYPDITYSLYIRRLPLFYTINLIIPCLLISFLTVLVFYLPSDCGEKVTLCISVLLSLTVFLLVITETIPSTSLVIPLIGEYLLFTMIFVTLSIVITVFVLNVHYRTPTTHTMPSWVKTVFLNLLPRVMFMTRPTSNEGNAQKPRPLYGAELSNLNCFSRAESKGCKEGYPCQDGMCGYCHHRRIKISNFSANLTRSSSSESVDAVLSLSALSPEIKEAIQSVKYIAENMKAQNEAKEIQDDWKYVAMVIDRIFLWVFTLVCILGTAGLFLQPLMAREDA

[3] = target: T2, Neuronal acetylcholine receptor; alpha4/beta2 (Homo sapiens, UniProt P17787+P43681); assay: Inhibitory concentration against Nicotinic acetylcholine receptor alpha4-beta2; Range is 3-5 nM; assay type: protein-complex assay
[4] = target: T3, Neuronal acetylcholine receptor; alpha4/beta4 (Homo sapiens, UniProt P30926+P43681); assay: Inhibitory concentration against Nicotinic acetylcholine receptor alpha4-beta4; Range is 3-5 nM; assay type: protein-complex assay
T3 sequence (P30926 whole entry): as the sequence (P30926 whole entry) above
T3 sequence (P43681 whole entry): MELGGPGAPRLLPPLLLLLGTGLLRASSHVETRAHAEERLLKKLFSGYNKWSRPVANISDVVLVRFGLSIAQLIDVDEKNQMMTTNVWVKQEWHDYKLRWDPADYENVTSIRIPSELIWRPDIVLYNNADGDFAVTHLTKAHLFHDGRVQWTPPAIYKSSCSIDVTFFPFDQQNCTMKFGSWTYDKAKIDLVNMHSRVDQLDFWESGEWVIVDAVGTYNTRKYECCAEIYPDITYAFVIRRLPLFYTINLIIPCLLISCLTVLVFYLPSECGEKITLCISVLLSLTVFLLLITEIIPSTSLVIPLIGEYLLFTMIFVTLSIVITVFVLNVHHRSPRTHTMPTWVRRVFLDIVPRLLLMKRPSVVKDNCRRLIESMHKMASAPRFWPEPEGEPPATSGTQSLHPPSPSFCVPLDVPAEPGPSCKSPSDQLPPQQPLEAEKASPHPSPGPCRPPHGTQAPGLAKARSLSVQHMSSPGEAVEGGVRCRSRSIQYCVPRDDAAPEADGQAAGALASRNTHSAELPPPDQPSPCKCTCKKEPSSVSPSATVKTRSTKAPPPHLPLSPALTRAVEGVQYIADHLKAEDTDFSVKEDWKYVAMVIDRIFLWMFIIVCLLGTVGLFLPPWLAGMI

[5] = target: T4, Neuronal acetylcholine receptor subunit alpha-7 (Homo sapiens, UniProt P36544); assay: Inhibitory concentration against Nicotinic acetylcholine receptor alpha-7 Range is 3-5 nM
T4 sequence (P36544 whole entry): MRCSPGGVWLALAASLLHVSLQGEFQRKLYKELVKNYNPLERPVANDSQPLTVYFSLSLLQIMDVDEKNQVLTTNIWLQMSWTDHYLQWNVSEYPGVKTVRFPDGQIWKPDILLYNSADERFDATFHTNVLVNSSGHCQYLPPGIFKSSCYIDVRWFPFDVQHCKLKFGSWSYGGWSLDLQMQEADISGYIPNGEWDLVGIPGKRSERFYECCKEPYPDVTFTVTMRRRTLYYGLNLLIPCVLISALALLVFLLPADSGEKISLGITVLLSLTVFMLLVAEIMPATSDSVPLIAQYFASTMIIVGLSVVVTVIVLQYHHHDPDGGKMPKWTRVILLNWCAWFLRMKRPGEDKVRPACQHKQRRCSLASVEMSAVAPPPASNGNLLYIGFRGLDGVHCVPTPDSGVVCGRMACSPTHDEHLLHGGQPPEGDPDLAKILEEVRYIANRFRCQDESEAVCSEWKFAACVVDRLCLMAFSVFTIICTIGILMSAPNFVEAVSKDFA

[6] = target: Neuronal acetylcholine receptor; alpha3/alpha6/beta2/beta3 (Homo sapiens, UniProt P17787+P32297+Q05901+Q15825); assay: Inhibitory concentration against Nicotinic acetylcholine receptor alpha-6-alpha-3-beta-2-beta-3; Range is 0.7-1 nM; assay type: protein-complex assay
[7] = target: T1, Neuronal acetylcholine receptor; alpha3/beta4; assay: Inhibitory concentration against Nicotinic acetylcholine receptor alpha3-beta4; Range is 0.7-1 nM; assay type: protein-complex assay
[8] = target: T2, Neuronal acetylcholine receptor; alpha4/beta2; assay: Maximal response against Nicotinic acetylcholine receptor alpha4-beta2; assay type: protein-complex assay
[9] = target: Neuronal acetylcholine receptor; alpha2/beta4 (Rattus norvegicus) (UniProt P12389+P12392); assay: Maximal response against Nicotinic acetylcholine receptor alpha2-beta4 in rat mid brain slices
[10] = target: T5, Neuronal acetylcholine receptor; alpha3/beta4 (Rattus norvegicus) (UniProt P04757+P12392); assay: Maximal response against Nicotinic acetylcholine receptor alpha3-beta4 in rat mid brain slices
[11] = target: T6, Neuronal acetylcholine receptor; alpha4/beta2 (Rattus norvegicus) (UniProt P09483+P12390); assay: Maximal response against Nicotinic acetylcholine receptor alpha4-beta2 in rat mid brain slices
[12] = target: Neuronal acetylcholine receptor; alpha4/beta4 (Rattus norvegicus) (UniProt P09483+P12392); assay: Maximal response against Nicotinic acetylcholine receptor alpha4-beta4 in rat mid brain slices
[13] = target: Neuronal acetylcholine receptor subunit alpha-7 (Rattus norvegicus, UniProt Q05941); assay: Effective concentration against Nicotinic acetylcholine receptor alpha 7 in rat mid brain slices
[14] = target: Neuronal acetylcholine receptor; alpha3/beta2 (Rattus norvegicus, UniProt P04757+P12390); assay: Effective concentration against Nicotinic acetylcholine receptor alpha3-beta2 in rat mid brain slices
Chain of Neuronal acetylcholine receptor; alpha3/beta2 (Rattus norvegicus, UniProt P04757+P12390) (P04757 whole entry): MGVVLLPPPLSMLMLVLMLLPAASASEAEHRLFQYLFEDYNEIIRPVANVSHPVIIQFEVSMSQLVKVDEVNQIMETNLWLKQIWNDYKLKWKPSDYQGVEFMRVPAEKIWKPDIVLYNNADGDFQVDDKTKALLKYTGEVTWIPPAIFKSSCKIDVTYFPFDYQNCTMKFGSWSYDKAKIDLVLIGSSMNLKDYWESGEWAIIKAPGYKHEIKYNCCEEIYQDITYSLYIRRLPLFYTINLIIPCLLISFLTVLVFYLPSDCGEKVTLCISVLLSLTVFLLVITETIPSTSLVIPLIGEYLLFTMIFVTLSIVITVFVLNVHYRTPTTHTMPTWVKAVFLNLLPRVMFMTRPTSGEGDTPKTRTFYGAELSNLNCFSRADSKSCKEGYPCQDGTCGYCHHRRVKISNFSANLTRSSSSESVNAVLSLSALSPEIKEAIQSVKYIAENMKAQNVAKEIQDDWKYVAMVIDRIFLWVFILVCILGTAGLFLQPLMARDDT
Chain of Neuronal acetylcholine receptor; alpha3/beta2 (Rattus norvegicus, UniProt P04757+P12390) (P12390 whole entry): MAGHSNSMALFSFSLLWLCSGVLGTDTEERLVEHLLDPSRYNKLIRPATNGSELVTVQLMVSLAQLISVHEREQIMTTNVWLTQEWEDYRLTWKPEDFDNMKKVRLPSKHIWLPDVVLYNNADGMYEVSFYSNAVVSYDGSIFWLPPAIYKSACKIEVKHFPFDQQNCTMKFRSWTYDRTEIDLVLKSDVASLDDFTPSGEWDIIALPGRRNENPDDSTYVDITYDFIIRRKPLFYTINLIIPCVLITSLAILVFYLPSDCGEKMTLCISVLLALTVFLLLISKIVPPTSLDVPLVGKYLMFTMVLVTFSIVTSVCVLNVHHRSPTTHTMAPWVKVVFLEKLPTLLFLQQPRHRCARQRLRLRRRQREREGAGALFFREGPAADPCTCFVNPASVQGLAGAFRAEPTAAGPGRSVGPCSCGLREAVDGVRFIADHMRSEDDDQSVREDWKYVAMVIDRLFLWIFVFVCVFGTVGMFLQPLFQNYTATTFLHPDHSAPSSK

[15] = target: T4, Neuronal acetylcholine receptor subunit alpha-7; assay: Effective concentration against Nicotinic acetylcholine receptor alpha 7
[16] = target: T1, Neuronal acetylcholine receptor; alpha3/beta4; assay: Effective concentration against Nicotinic acetylcholine receptor alpha3-beta4; assay type: protein-complex assay
[17] = target: T3, Neuronal acetylcholine receptor; alpha4/beta4; assay: Effective concentration against Nicotinic acetylcholine receptor alpha4-beta4; assay type: protein-complex assay
[18] = target: T1, Neuronal acetylcholine receptor; alpha3/beta4; assay: Inhibitory concentration against Nicotinic acetylcholine receptor alpha3-beta4; Range is 100-200 nM; assay type: protein-complex assay
[19] = target: T4, Neuronal acetylcholine receptor subunit alpha-7; assay: Inhibitory concentration against Nicotinic acetylcholine receptor alpha7; Range is 100-200 nM
[20] = target: Neuronal acetylcholine receptor subunit alpha-9 (Homo sapiens, UniProt Q9UGM1); assay: Inhibitory concentration against Nicotinic acetylcholine receptor alpha9; Range is 100-200 nM
[21] = Inhibitory concentration against Nicotinic acetylcholine receptor alpha-6-alpha-3-beta-2; Range is 0.7-1 nM; set-up: species or system Homo sapiens
[22] = Inhibitory concentration against Nicotinic acetylcholine receptor alpha6-beta4; Range is 0.7-1 nM; set-up: species or system Homo sapiens
[23] = target: Neuronal acetylcholine receptor subunit alpha-7 (Rattus norvegicus) (UniProt Q05941); assay: Maximal response against rat neural Nicotinic acetylcholine receptor alpha 7
[24] = target: Neuronal acetylcholine receptor; alpha3/beta2 (Rattus norvegicus) (UniProt P04757+P12390); assay: Maximal response against rat neural Nicotinic acetylcholine receptor alpha3-beta2; assay type: protein-complex assay
[25] = target: T5, Neuronal acetylcholine receptor; alpha3/beta4 (Rattus norvegicus); assay: Maximal response against rat neural Nicotinic acetylcholine receptor alpha3-beta4; assay type: protein-complex assay
[26] = target: T6, Neuronal acetylcholine receptor; alpha4/beta2 (Rattus norvegicus); assay: Maximal response against rat neural Nicotinic acetylcholine receptor alpha4-beta2; assay type: protein-complex assay

Chain of Neuronal acetylcholine receptor; alpha3/beta2 (Homo sapiens, UniProt P17787+P32297) (P17787 whole entry): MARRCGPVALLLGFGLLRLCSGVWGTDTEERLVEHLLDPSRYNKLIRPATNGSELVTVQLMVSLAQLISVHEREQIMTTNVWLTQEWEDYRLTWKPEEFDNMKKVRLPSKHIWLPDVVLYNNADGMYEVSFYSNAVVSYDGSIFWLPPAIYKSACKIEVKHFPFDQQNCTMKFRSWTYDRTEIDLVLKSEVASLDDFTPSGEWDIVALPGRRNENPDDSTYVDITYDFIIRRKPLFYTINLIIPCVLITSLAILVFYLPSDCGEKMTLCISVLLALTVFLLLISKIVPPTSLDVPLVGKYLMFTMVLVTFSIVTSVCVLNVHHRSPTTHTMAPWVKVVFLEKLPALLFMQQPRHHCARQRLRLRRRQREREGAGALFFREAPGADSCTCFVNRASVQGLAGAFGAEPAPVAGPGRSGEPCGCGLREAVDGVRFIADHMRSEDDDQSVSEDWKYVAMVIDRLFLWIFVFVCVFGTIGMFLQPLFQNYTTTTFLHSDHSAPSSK
Chain of Neuronal acetylcholine receptor; alpha3/beta2 (Homo sapiens, UniProt P17787+P32297) (P32297 whole entry): as the sequence (P32297 whole entry) above

## CC[C@H](C)[C@H](N)C(=O)N[C@@H](CCCN=C(N)N)C(=O)N[C@@H](CC(=O)O)C(=O)N[C@@H](CCC(=O)O)C(=O)N[C@@H](CS)C(=O)N[C@@H](CS)C(=O)N[C@@H](CO)C(=O)N[C@@H](CC(N)=O)C(=O)N1CCC[C@H]1C(=O)N[C@@H](C)C(=O)N[C@@H](CS)C(=O)N[C@@H](CCCN=C(N)N)C(=O)N[C@H](C(=O)N[C@@H](CC(N)=O)C(=O)N[C@@H](CC(N)=O)C(=O)N1C[C@H](O)C[C@H]1C(=O)N[C@@H](Cc1c[nH]cn1)C(=O)N[C@H](C(=O)N[C@@H](CS)C(N)=O)C(C)C)C(C)C (H-IRDECCSNPACRVNN[Hyp]HVC-NH2)
[1]
  IC50: 5 nM
[2]
  IC50: 5 nM
[3]
  IC50: 5 nM
[4]
  IC50: 5 nM
[5]
  IC50: 5 nM

## CC[C@H](C)[C@H](NC(=O)[C@H](CCC(N)=O)NC(=O)[C@@H]1CCCN1C(=O)[C@H](CC(N)=O)NC(=O)[C@H](Cc1cnc[nH]1)NC(=O)[C@@H](NC(=O)[C@@H](NC(=O)[C@H](CS)NC(=O)[C@@H](NC(=O)[C@@H]1CCCN1C(=O)[C@H](CC(N)=O)NC(=O)[C@H](CO)NC(=O)[C@H](CS)NC(=O)[C@H](CS)NC(=O)[C@@H]1CCCN1C(=O)[C@@H](N)CC(=O)O)C(C)C)[C@@H](C)O)C(C)C)C(=O)N[C@@H](CS)C(N)=O (H-DPCCSNPVCTVHNPQIC-NH2)
[6]
  IC50: 1 nM
[7]
  IC50: 1 nM

## CN[C@@H](C)C/C=C/c1cncc(OC(C)C)c1 [ISPRONICLINE]
[8]
  Rmax: 60%
[9]
  Rmax: 56%
[10]
  Rmax: 24%
[11]
  Rmax: 33%
[12]
  Rmax: 42%
[13]
  EC50: > 100000 nM
[14]
  EC50: > 100000 nM
[15]
  EC50: > 10000 nM
[16]
  EC50: > 10000 nM
[17]
  EC50: > 10000 nM

## C[C@H](NC(=O)[C@H](CS)NC(=O)[C@H](CCCN=C(N)N)NC(=O)[C@@H]1CCCN1C(=O)[C@H](CC(=O)O)NC(=O)[C@H](CO)NC(=O)[C@H](CS)NC(=O)[C@H](CS)NC(=O)CN)C(=O)N[C@@H](Cc1c[nH]c2ccccc12)C(=O)N[C@@H](CCCN=C(N)N)C(N)=O (H-GCCSDPRCAWR-NH2)
[18]
  IC50: 200 nM
[19]
  IC50: 200 nM
[20]
  IC50: 200 nM

## CC[C@H](C)[C@H](NC(=O)[C@H](CCC(N)=O)NC(=O)[C@@H]1CCCN1C(=O)[C@H](CC(N)=O)NC(=O)[C@H](Cc1c[nH]cn1)NC(=O)[C@@H](NC(=O)[C@@H](NC(=O)[C@H](CS)NC(=O)[C@@H](NC(=O)[C@@H]1CCCN1C(=O)[C@H](CC(N)=O)NC(=O)[C@H](CO)NC(=O)[C@H](CS)NC(=O)[C@H](CS)NC(=O)[C@@H]1CCCN1C(=O)[C@@H](N)CC(=O)O)C(C)C)[C@@H](C)O)C(C)C)C(=O)N[C@@H](CS)C(N)=O (H-DPCCSNPVCTVHNPQIC-NH2)
[21]
  IC50: 1 nM
[22]
  IC50: 1 nM

## Cc1cc([C@@H]2CCN2C)on1
[23]
  Rmax: 50%
[24]
  Rmax: 119%
[25]
  Rmax: 50%
[26]
  Rmax: 55%
